Experimental data published in patent US12577587B2 (priority 2009, dated 2026).
Entries after “also recorded” stand apart in the source; their conditions may differ.

Experiments:
Type in all cases: cell-based, human
[1] = tested on: KBM7 cells
[2] = tested on: KBM7 cells; remark: listed apart in the source
[3] = tested on: KBM7 cells; remark: listed apart in the source

Compound	infection efficiency [3] [%]	also measured
Cc1ccc(NC(=O)c2ccc(CN3CCN(C)CC3)cc2)cc1Nc1nccc(-c2cccnc2)n1 [Gleevec, imatinib]		sensitivity to Gleevec (apoptosis) [1]: very sensitive; also recorded: sensitive
TRAIL		Cell viability [2]: decreased dramatically
polybrene	33	
protamine sulphate	44	
